The values that follow come from patent publication US20080139596A1, “Modulators of Hcv Replication” (priority 2004, published 2008).

For orientation: IC50 means the concentration that gives 50% inhibition.

The test system of experiment [1] is hyperphosphorylated NS5A (p58) in HB68 cells. The experiment in a line: NS5A hyperphosphorylation assay (radiolabelling, immunoprecipitation, SDS-PAGE). Type of experiment: cell-based, Hepatitis C virus. Particulars: 5 μM; for formation of the hyperphosphorylated form of NS5A (p58) / NS5A phosphorylation: 35S-methionine or 32P-orthophosphate labelling. The procedure:
The presence of hyperphosphorylated NS5A (p58) was evaluated in Huh7-HB68 cells. Proteins were labeled either with ^35S-methionine (lanes 2-5) or with ^32P-orthophosphate (lanes 7-10) in the presence of DMSO (lanes 2 and 7) or with 5 μM of Compound (1) (lanes 3 and 8), Compound (2) (lanes 4 and 9) or SB203580 (lanes 5 and 10). After the radiolabelling, protein extract was prepared, NS5A was immunoprecipitated and proteins were loaded on a 7.5% SDS-PAGE and autoradiographed. The sizes of molecular weight marker proteins are indicated in lanes 1 and 6.
Inhibition of NS5A hyperphosphorylation in intact cells was measured by determining the amount of hyperphosphorylated NS5A (p58) in cells expressing HCV NS5A in the context of a polyprotein comprising at least NS3, NS4A, NS4B, and NS5A (Neddermann et al., J Virol 73, 9984-9991, 1999). […] HBI10 and HB68 are Huh-7 derived-cell lines described in WO2002/059321.
Hyperphosphorylated NS5A was detected as a protein that i) migrates with an apparent molecular weight of about 58 kDa in SDS PAGE, and ii) is immunoreactive with anti-NS5A antibodies. Thus, the amount of hyperphosphorylated NS5A was detected by immunoprecipitation of radioactively labeled proteins.
HBI10 or HB68 were cultured in Dulbecco's modified Eagle medium (DMEM) supplemented with 10% fetal bovine serum (FBS) in the presence of 0.8 mg/ml of G418 (Geneticin; Gibco/BRL). For starvation prior to radioactive protein labeling, minimal essential medium without methionine (Gibco/BRL) was used. For protein labeling, 100 μCi/ml of ^35S-labelled methionine (Promix, Amersham, Cat. No. SJQ0079, 1000 Ci/mmole) was added to the cells.
• 1. HBI10 or HB68 cells were grown to 80% confluency in 6-well plates. • 2. Compound to be tested, dissolved in DMSO at 100× concentration, was added to each well. • 3. One hour later, the medium was removed and replaced with Minimal Essential Medium without methionine. This step is omitted in the case of 32P-orthophosphate labeling. • 4. Compound to be tested, dissolved in DMSO at 100× concentration, was freshly added to each well. • 5. One hour later 100 μCi of ^35S-labelled methionine per ml of Minimal Essential Medium without methionine was added to each well for 35S-metabolic labeling together with the compound to be tested, dissolved in DMSO at 100× concentration. In the case of 32P-labelling, cells were washed once with Dulbecco's modified Eagle's medium without phosphate (ICN) and labeled for 4 hours in the same medium containing 500 μCi/ml of [32P]-orthophosphate (285.5 Ci/mg, NEN) together with the compound to be tested, dissolved in DMSO at 100× concentration. • 6. After 4 hours, cells were harvested from each well and individual cell extracts were prepared in 100 μl of cell lysis buffer. • 7. […]

Experiment [2] has as its system wild type Con1 replicon. The experiment in a line: Beta-lactamase gene reporter assay (BLA-assay), replicon electroporated in 10A-IFN cells. To be noted: 8 μM, added two hours after electroporation, 4 days of incubation. In kind it is cell-based, Hepatitis C virus. Here is the method: The BLA-assay was performed after 4 days of incubation in the presence of the compounds to be tested according to Murray et al., J Virol 77, 2928-35, 2003. Briefly, medium was removed, and cells were stained for 90 min with CCF4-AM (Aurora Biosciences Corp.) in Dulbecco's modified Eagle's medium supplemented with 25 mM HEPES, pH 8.0. For quantitation of the fraction of cells harboring bla replicons, cells were photographed by using a digital charge-coupled device color camera and green and blue cells were counted. Another method for measuring beta-lactamase activity is using a fluorescence plate reader that quantitates the amount of green (530 nm) or blue (460 nm) fluorescence emitted by cells stimulated with light of 405 nm.
A subgenomic replicon was used in which the original neomycin phosphotransferase (neo) gene was replaced by the β-lactamase (bla) gene (WO2003089672 A1 and Murray et al., J Virol 77, 2928-2935, 2003). Cells actively replicating HCV express β-lactamase and show a fluorescent blue staining after incubation with a diffusible β-lactamase substrate (BLA-assay). Replicon RNA was electroporated in 10A-IFN cells and compounds were added at a concentration of 8 μM two hours after electroporation. The BLA-assay was performed after 4 days of incubation in the presence of the compounds to be tested according to Murray et al., J Virol 77, 2928-35, 2003. Briefly, medium was removed, and cells were stained for 90 min with CCF4-AM (Aurora Biosciences Corp.) in Dulbecco's modified Eagle's medium supplemented with 25 mM HEPES, pH 8.0. For quantitation of the fraction of cells harboring bla replicons, cells were photographed by using a digital charge-coupled device color camera and green and blue fluorescent cells were counted. Alternatively, fluorescence was measured by using a CytoFluor 4000 fluorescence plate reader.
The control compound SB203580 had no effect on HCV replication.

For experiment [3], the system named is wt Con1 replicon. In kind it is cell-based. To be noted: 8 μM; 4 days of incubation; wt Con1 replicon in 10A-IFN cells. (A replicon is a self-replicating genome or part of one, used to study replication in cells.)
Experiment [4] has as its system replicon m17 (E1202G in NS3). Type of experiment: cell-based. Particulars: 8 μM; 4 days of incubation; replicon m17 in 10A-IFN cells.
The subject of experiment [5] is subgenomic replicons with the synergistic mutation in NS3 (m17). In words: HCV-specific RNA by real-time reverse transcription PCR (TaqMan) in 10A-IFN cells. In kind it is cell-based, Hepatitis C virus. To be noted: 8 μM; 4 days; m17 replicon in 10A-IFN cells; quantitative PCR. Here is the method:
(§1) RNA was transcribed from the plasmids wt, wt-GAA, m17, SA, m17/SA and m17-GAA and electroporated into 10A-IFN cells. Cells were incubated for four days without or with 8 μM of Compound (1), Compound (2) or SB203580.
(§2) (A) HCV-specific RNA analysis using quantitative RT-PCR. Total cellular RNA was extracted and HCV-specific RNA was quantified as described in Materials and Methods. On the Y-axis is shown the fold-induction with respect to the DMSO control (black bar), Compound (1) (dark grey bar), Compound (2) (light grey bar) or SB203580 (dotted bar). Replicon RNA is indicated at the bottom of the figure.
(§3) Replicon RNA was extracted from selected clones either using the Qiagen RNAeasy minikit following manufacturer instructions or as described by Chomczynski et al., 1987. Anal. Biochem. 162, 156-159. TaqMan analysis was typically performed using 10 ng of RNA in a reaction mix (TaqMan Gold RT-PCR kit, Perkin Elmer Biosystems) either with HCV specific oligos/probe (as disclosed in published International application WO02/059321) or with human beta-actin specific oligos/probe (Pre-Developed TaqMan Assay Reagents, Endogenous Control Human beta-actin, Part Number 4310881E, Applied Biosystems). PCR was performed using a Perkin Elmer ABI PRISM 7700 under the following conditions: 30 minutes at 48° C. (the RT step), 10 minutes at 95° C. and 40 cycles: 15 seconds at 95° C. and 1 minute at 60° C. Quantitative calculations were obtained using the Comparative CT Method (described in User Bulletin #2, ABI PRISM 7700 Sequence Detection System, Applied Biosystem, December 1997) considering the level of GAPDH mRNA constant. All calculations of HCV RNA are expressed as fold difference over a specific control.
(§4) A similar experiment was carried out in order to detect HCV-specific RNA using real-time reverse transcription PCR amplification (FIG. 2A). […] Compound (1) induced replication of wt Con1 replicon 6-fold as measured by quantitative PCR, whereas induction of replication by the other compounds was below background (wt). […]

Experiment [6] relates to Con1 replicon carrying the adaptive mutation S2204I (SI). Type of experiment: cell-based, Hepatitis C virus. Particulars: SI replicon (low amounts of hyperphosphorylated NS5A); 10A-IFN cells; 4 days; Cell-ELISA; read-out: IC50, inhibition of HCV replication.
Experiment [7] deals with Con1 replicon carrying the adaptive mutation A2199T (AT). Type of experiment: cell-based, Hepatitis C virus. Particulars: AT replicon (high amounts of hyperphosphorylated NS5A); 10A-IFN cells; 4 days; Cell-ELISA; read-out: IC50, inhibition of HCV replication.
The test system of experiment [8] is wt Con1 replicon. In words: HCV-specific RNA by real-time reverse transcription PCR (TaqMan) in 10A-IFN cells. Particulars: 8 μM; 4 days; wt Con1 replicon in 10A-IFN cells; quantitative PCR. Type of experiment: cell-based, Hepatitis C virus. The procedure: as §1, §2, §3, §4
On the technique in general: In qPCR the cycle at which signal appears reflects the starting amount.

In the case of `C[S+]([O-])c1ccc(-c2nc(-c3ccncc3)c(-c3ccc(F)cc3)[nH]2)cc1` (stereo not shown) [SB203580, reference compound], in experiment [1], the NS5A expression result is given as “no effect” and the “formation of the hyperphosphorylated form of NS5A (p58) / NS5A phosphorylation” value (“formation … (p58) / NS5A phosphorylation” for short) is recorded as “no effect”. Further, the “HCV replication (fluorescent blue cells, BLA-assay)” value (“HCV replication” for short) in experiment [2] is given as “no effect”. Further, the “presence of NS5A by immunoblot” value in experiment [3] is reported as “no NS5A was visible”.

Take `CN1CCC(c2nc(-c3ccncc3)c(-c3ccc(F)cc3)[nH]2)CC1` [Compound (2), 4-[5-(4-fluorophenyl)-2-(1-methylpiperidin-4-yl)-1H-imidazol-4-yl]pyridine]: the “formation … (p58) / NS5A phosphorylation” value in experiment [1] is “inhibited the formation of the hyperphosphorylated form of NS5A”. Moreover, the “HCV replication” value in experiment [2] is listed as “resulted in the production of fluorescent blue cells”. Besides, in experiment [3], the “presence of NS5A by immunoblot” value is reported as “no protein was visible”. Further, the “activation of replication (NS5A by immunoblot)” value in experiment [4] is “less potent activator”. Besides, in experiment [5], the “fold-induction of HCV-RNA with respect to the DMSO control” value was 58 fold. Also, the IC50 in experiment [6] was determined as 500 nM; in experiment [7], 5000 nM.

As for `CNc1nccc(-c2[nH]c(C3CCNCC3)nc2-c2cccc(C(F)(F)F)c2)n1` [Compound (1), N-methyl-4-{2-piperidin-4-yl-4-[3-(trifluoromethyl)phenyl]-1H-imidazol-5-yl}pyrimid-2-amine], the “formation … (p58) / NS5A phosphorylation” value in experiment [1] was “inhibited the formation of the hyperphosphorylated form of NS5A”. Besides, the “HCV replication” value in experiment [2] is given as “resulted in the production of fluorescent blue cells”. Further, in experiment [3], the “presence of NS5A by immunoblot” value was “NS5A could be detected”. Besides, the “activation of replication (NS5A by immunoblot)” value in experiment [4] is “more potent”. For the same compound, the “fold-induction of HCV-RNA with respect to the DMSO control” value in experiment [5] turned out to be 312 fold; in experiment [8], 6 fold. Besides, the IC50 in experiment [6] stood at 500 nM; in experiment [7], 5000 nM.
